Experiments:
[1] = test system: pphz1-lux in WT P. aeruginosa; assay: P. aeruginosa pphz1-lux bioluminescent reporter assay; type: cell-based, Pseudomonas aeruginosa PA14; details: for IC50: Pseudomonas aeruginosa, PA14, read-out: IC50 PA14; for IC50 values in P. aeruginosa: pphz1-lux in WT P. aeruginosa
Method: Strains were struck onto LB agar and grown overnight at 37 °C. The following day, individual colonies were isolated and transferred into LB liquid medium followed by incubation at 37 °C. After overnight growth, cultures were diluted 1:1000 into M9 medium. 100 μL of these suspensions were aliquoted into wells of 96 well plates (Corning). Plates were incubated for 24 h at 37 °C in a BioSpa Automated Incubator (Agilent). Light production and OD600 were quantified from each well at either 15 or 20 min intervals (Neo2, Agilent). When noted, SPR741 (DC Chemicals) was added at the specified concentration.
One thousand small molecules from the initial screen were selected for retesting, following the identical protocol used for the screen. Of these molecules, 751 were assayed for luciferase inhibition using P. aeruginosa containing ptac-lux instead of pphz1-lux. Any compound that inhibited this reporter by at least 50% was eliminated from the pipeline. One hundred and sixty-seven compounds were further analyzed in dilution series to determine IC50 values with respect to pphz1-lux inhibition. A ten-point, 2-fold serial dilution series was made of each test compound in DMSO solvent. The highest tested concentration was 40 μM. These assays were carried out in 384 well plates (Corning) as described above using both the P. aeruginosa ptac-lux and pphz1-lux reporter strains.

WT P. aeruginosa [2] = assay: Quinolone (HHQ, PQS) quantitation by LCMS in culture fluids; type: cell-based, Pseudomonas aeruginosa; details: WT P. aeruginosa treated with 100 μM compound; compared with ΔpqsR
Method: For all assays: the designated P. aeruginosa strains were grown as described above for the pyocyanin inhibition assay. Following overnight growth, culture fluids were separated from cells by centrifugation and filtration.
For quinolone quantitation: cell-free culture fluids were extracted with 2 mL of ethyl acetate that had been acidified with 0.15 mL/L glacial acetic acid. The organic layer was isolated and dried down in vacuo. Dried samples were resuspended in 50 μL of methanol and analyzed by LCMS on an Agilent 1290 Infinity II HPLC connected to an MSD iQ. The injection was 2 μL. The mobile phase was a water–MeCN gradient containing 0.1% formic acid. Chromatography was performed as follows: 2 min hold at 5% […], ramp up to 95% MeCN over 8 min hold for 2 min at 95% MeCN, return to 5% MeCN and re-equilibrate for 1 min. Data were acquired in positive mode scanning between m/z 100–1000. Source parameters for acquisition were as follows: gas temperature 325 °C, gas flow 11 (L/min), capillary voltage 3500 V. Data were processed using Agilent OpenLAB CDS. Peaks were extracted by m/z, quantified by area under the curve. Each compound was compared to a 100 ng/μL commercial standard of PQS or HHQ.

PqsR = target: T1, PqsR (Pseudomonas aeruginosa, UniProt Q9I4X0); assay: E. coli PqsR/ppqsA-lux reporter assay; type: cell-based
T1 construct: expressed in transfected cells; host or cells: Escherichia coli carrying pBAD-pqsR and pCS26-ppqsA-luxCDABE
Text: To determine the target(s) of the 49 hit compounds in P. aeruginosa, we assayed them in a set of E. coli-based reporter strains that read out exclusively RhlR, LasR, or PqsR function. The three assays work by a similar logic. In each case, the gene encoding one of the three quorum-sensing receptors is driven by an arabinose-inducible promoter. The receptor proteins, once made, are activated by exogenously supplied cognate autoinducer. The receptor–autoinducer complexes activate a target gene promoter fused to luciferase (prhlA-lux for RhlR, plasB-lux for LasR, and ppqsA-lux for PqsR). […] To further verify that PqsR is the target of our inhibitors, we assessed whether production of PQS and its precursor, HHQ, declined following treatment of WT P. aeruginosa with one test compound, A7. […] Below, we focus on these 30 compounds that we propose target PqsR. The other 19 compounds will be characterized at a later time.
As previously reported, following overnight growth in LB liquid medium at 37 °C, E. coli reporter strains were diluted 1:1000 in LB liquid medium containing 1% arabinose (PqsR) or 0.1% arabinose (LasR and RhlR). The reporter strain for PqsR activity carried pCS26-ppqsA-luxCDABE and pBAD-pqsR. The reporter strain for LasR activity carried pCS26-plasB-luxCDABE and pBAD-lasR; the reporter strain for RhlR activity carried pCS26-prhlA-luxCDABE and pBAD-rhlR. Test compounds were added at the specified concentrations. To activate PqsR, PQS was added at 100 nM. To activate LasR, 3O-C12-HSL was added at 5 nM. To activate RhlR, C4-HSL was added at 10 μM. To establish IC50 values, 10-point, […] serial dilution series were made starting at 100 μM of each compound. The mixtures were incubated at 37 °C for 24 h (BioSpa, Agilent). Bioluminescence and OD600 were assessed every 15 min (Neo2, Agilent). Readings from the 9 h time point, representing peak signal production, were used to calculate the IC50 values.

WT P. aeruginosa [3] = assay: Real time PCR of phzH and phzS; type: cell-based, Pseudomonas aeruginosa; details: 100 μM compound, qPCR relative to DMSO
Method: Following overnight growth in LB at 37 °C with aeration, P. aeruginosa strains were diluted to an OD600 of 0.001 and grown to an OD600 of 3 at 37 °C with aeration. 500 μL of cells were collected by centrifugation and flash frozen. RNA was extracted using RNAeasy Plus mini columns (Qiagen). DNA was removed, followed by cDNA synthesis, using SuperScript IV VILO Master Mix with ezDNase Enzyme (Invitrogen). RNA was quantified using PerfeCTa SYBR Green FastMix Low ROX (Quanta BioSciences). Relative quantity is calculated by ΔΔCt compared to DMSO treatment and the reference gene, rpsL. Outliers with values higher or lower than twice the standard deviation of the mean were removed.

WT P. aeruginosa [4] = assay: Pyocyanin inhibition assay; type: cell-based, Pseudomonas aeruginosa; details: 100 μM compound
Method: WT P. aeruginosa and the ΔpqsE mutant were struck onto LB agar and grown overnight at 37 °C. Individual colonies were diluted into 5 mL of LB liquid medium. Aliquots were transferred into glass tubes containing test compounds with and without 8 μg/mL SPR741. WT P. aeruginosa to which DMSO had been added served as the negative control. The P. aeruginosa ΔpqsE strain to which DMSO had been added served as the positive control. Compounds were tested at 100 μM. Tubes were shaken for 18 h at 37 °C followed by centrifugation at 15,000 rpm for 5 min. Cell-free culture fluids were collected and assessed for pyocyanin by absorbance at 695 nm. Values were normalized by culture density, using absorbance at OD600. Percent inhibition of OD695/OD600 was normalized to the DMSO control.

T1 sequence (Q9I4X0 whole entry): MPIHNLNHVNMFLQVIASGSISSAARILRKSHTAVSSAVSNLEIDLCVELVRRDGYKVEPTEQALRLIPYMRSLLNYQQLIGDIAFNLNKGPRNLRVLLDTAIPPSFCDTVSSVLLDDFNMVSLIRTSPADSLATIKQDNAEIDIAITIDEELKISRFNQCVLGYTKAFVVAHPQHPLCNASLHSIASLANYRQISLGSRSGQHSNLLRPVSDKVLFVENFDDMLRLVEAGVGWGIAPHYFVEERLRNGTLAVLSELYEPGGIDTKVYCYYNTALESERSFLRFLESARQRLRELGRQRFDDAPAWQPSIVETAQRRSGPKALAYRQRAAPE

N#Cc1cc(CN2CCC3(CC2)CC(Nc2ncccn2)C3)ccc1F [Compound A7]
IC50 [1]: 2200 ± 230 nM
production of HHQ (WT P. aeruginosa [2]): reduced to the level made by the P. aeruginosa ΔpqsR strain
production of PQS (WT P. aeruginosa [2]): reduced to the level made by the P. aeruginosa ΔpqsR strain
IC50 (PqsR): 510 ± 160 nM

N#Cc1ccc(NCC2CCC3(COCCN(Cc4ccccc4OC(F)F)C3)O2)nc1 (stereo not shown) [Compound A8]
IC50 [1]: 800 ± 200 nM
IC50 values in P. aeruginosa [1]: submicromolar
IC50 (PqsR): 1900 ± 440 nM
phzH expression (WT P. aeruginosa [3]): reduction only to the level displayed by the ΔpqsE mutant
phzS expression (WT P. aeruginosa [3]): reduced to the level in the ΔpqsE strain

N#Cc1cccc(CNCC2Cn3nnc(-c4ccccc4)c3CO2)c1 (stereo not shown) [Compound A9]
IC50 [1]: 38000 ± 2400 nM
IC50 (PqsR): 3900 ± 650 nM

CC(C)Oc1ccc(N2CC(C(=O)Nc3cccc(Cl)c3Cl)CC2=O)cc1 (stereo not shown) [Compound B2]
IC50 [1]: 4900 ± 260 nM
IC50 (PqsR): 4700 ± 560 nM

Cc1nn(-c2ccccc2)c(-n2cccc2)c1C(=O)N1CCC(C(=O)NCCc2ccccc2)CC1 [Compound B3]
IC50 [1]: 2000 ± 280 nM
IC50 (PqsR): 5200 ± 1700 nM

O=C(Nc1nnc(C(F)(F)F)s1)C1CC(=O)N(CCc2c[nH]c3ccc(Cl)cc23)C1 (stereo not shown) [Compound B4]
IC50 [1]: 2800 ± 100 nM
IC50 (PqsR): 590 ± 70 nM

O=S(=O)(c1ccc(-c2cc(C(F)(F)F)n[nH]2)s1)N1CC=C(c2ccccc2)CC1 [Compound B6]
IC50 [1]: 400 ± 30 nM
IC50 values in P. aeruginosa [1]: submicromolar
IC50 (PqsR): 550 ± 120 nM

O=S(=O)(Nc1ccc(F)cc1Cl)c1ccc(-c2cc(C(F)(F)F)n[nH]2)s1 [Compound B7]
IC50 [1]: 3500 ± 360 nM
IC50 (PqsR): 3800 ± 300 nM

CCOc1ccc(-n2nnnc2CNC(=O)Nc2cccc(Cl)c2)cc1 [Compound B8]
IC50 [1]: 6400 ± 1000 nM
IC50 (PqsR): 2370 ± 770 nM

Cc1ccc(C(=O)NCc2nc(-c3ccc(Oc4ccccc4)cc3)no2)cc1 [Compound B9]
IC50 (PqsR): 2000 ± 240 nM

O=C(NC(C(=O)N1CCOCC1)C12CC3CC(CC(C3)C1)C2)c1ccc([N+](=O)[O-])cc1 (stereo not shown) [Compound B10]
IC50 [1]: 10500 ± 1400 nM

O=C(Cn1cnc2c(oc3ccccc32)c1=O)N1CCC(Cc2ccccc2)CC1 [Compound B12]
IC50 [1]: 10500 ± 1200 nM
IC50 (PqsR): 14500 ± 1900 nM

O=C(NCc1cccs1)C1CCN(c2ccc3nnc(-c4ccccc4F)n3n2)CC1 [Compound B13]
IC50 (PqsR): 11900 ± 980 nM

CC(=O)c1cc(-c2ccccc2)n(CC(=O)Nc2nc3ccc(C)cc3s2)c1C [Compound B14]
IC50 [1]: 11400 ± 900 nM
IC50 (PqsR): 14500 ± 3390 nM

O=C(CN1CCC(c2nc(-c3cccc(F)c3)no2)CC1)Nc1ccccc1 [Compound B15]
IC50 [1]: 8600 ± 190 nM
IC50 (PqsR): 7040 ± 1180 nM

COc1cccc(-c2nc(CC(=O)Nc3ccc(F)cc3)no2)c1 [Compound C2]
IC50 [1]: 3200 ± 80 nM
IC50 (PqsR): 830 ± 170 nM

O=C(Cn1nnc(-c2ccccc2)n1)Nc1ccc(Br)cc1 [Compound C6]
IC50 (PqsR): 370 ± 80 nM

N#Cc1cnc(SCC(=O)Nc2ccc(Cl)c(Br)c2)nc1N [Compound C7]
IC50 [1]: 2400 ± 400 nM
IC50 (PqsR): 670 ± 80 nM

O=C(NC1CCN(Cc2cc(F)cc(F)c2)CC1)c1cc(C(F)(F)F)n[nH]1 [Compound C8]
IC50 [1]: 3900 ± 380 nM
IC50 (PqsR): 270 ± 40 nM

Oc1cc(CN2CCC(CCn3cccn3)CC2)nc2ccc(F)cc12 [Compound C9]
IC50 [1]: 7600 ± 250 nM
IC50 (PqsR): 210 ± 80 nM

CCOC1CCN(C(=O)c2cccc(-c3ccc(OC(F)F)cc3)c2)CC1 [Compound C10]
IC50 [1]: 4400 ± 160 nM

Cc1noc(CN2CCCC(CCC(=O)Nc3ccc(C(F)(F)F)cc3)C2)n1 (stereo not shown) [Compound C11]
IC50 [1]: 2800 ± 190 nM
IC50 (PqsR): 2940 ± 830 nM

Cc1cc(Br)ccc1NC(=O)CNC(=O)c1ccc(-n2cnc3ccccc32)cc1 [Compound D1]
IC50 [1]: 3900 ± 320 nM
pyocyanin inhibition without versus with SPR741 (WT P. aeruginosa [4]): improved pyocyanin inhibition in the absence of SPR741 compared to in its presence
IC50 (PqsR): 1990 ± 880 nM

N#CCc1ccc(NC(=O)CNc2ccc(C(F)(F)F)cc2)cc1 [Compound D2]
IC50 [1]: 2300 ± 20 nM
IC50 (PqsR): 1320 ± 170 nM

COc1ccc(Cl)cc1C(=O)NCC(O)C1CCCCC1 (stereo not shown) [Compound D3]
IC50 [1]: 8200 ± 770 nM
IC50 (PqsR): 8390 ± 75 nM

Cc1cc(Br)ccc1OCCn1cnc2ccccc2c1=O [Compound D4]
IC50 [1]: 1100 ± 28 nM
IC50 (PqsR): 1230 ± 310 nM

O=C(NCc1ccc(OC(F)F)cc1)c1ccc(C2SCCS2)cc1 [Compound D6]
IC50 [1]: 530 ± 28 nM
IC50 values in P. aeruginosa [1]: submicromolar
IC50 (PqsR): 420 ± 45 nM

O=C(c1csc2nc(-c3ccc(F)cc3)cn12)N1CCN(c2ccccc2F)CC1 [Compound E3]
IC50 [1]: 5000 ± 260 nM

O=C(Nc1ccc(Cl)c(Cl)c1)c1ccc(=O)n(Cc2cccc(F)c2)n1 [Compound E5]
IC50 [1]: 2300 ± 120 nM
IC50 (PqsR): 2870 ± 840 nM

CC(C)C(C(=O)O)N1C(=O)C(=Cc2cccc(Br)c2)SC1=S (stereo not shown) [Compound E6]
IC50 [1]: 9700 ± 490 nM
